The values that follow come from publication PMC7876453, “Targeting Indoleamine 2,3-Dioxygenase in Cancer Models Using the Novel Small Molecule Inhibitor NTRC 3883-0” (Frontiers in Immunology, 2021).

Read-outs that look alike come from different tables or passages of the source.

The target of one series is T1, human IDO1 (Homo sapiens, UniProt P14902).
T1 construct: Full-length recombinant human and mouse IDO1 were expressed in Escherichia coli with a hexahistidine tag at the N-terminus; hexahistidine (N); made in house; host or cells: Escherichia coli
The experiment in a line: human IDO1 biochemical assay (NFK GreenScreen). The note with it: human IDO1 biochemical assay.

The target of the next series is T2, hWB + IFNγ (hIDO1) (Homo sapiens, UniProt P14902).
T2 construct: from tissue; host or cells: heparinized human whole blood from healthy donors, IFNγ-stimulated
The experiment in a line: human whole blood assay, Trp-catabolizing activity after IFNγ stimulation. The series is classed as cell-based. The note with it: human whole blood from healthy donors.

Series [1] is described as follows: in vivo pharmacokinetics, rat. Also on record: species or system Wistar rats. The following applies: Wistar, plasma; for clearance / Vd: intravenous; for Vd: read-out: Vss. As to the method: Pharmacokinetic properties of NTRC 3883-0 were determined in plasma following single oral (p.o.) and i.v. administration to male CD-1 mice (n = 6 per treatment group with three mice sampled per time point), Wistar rats (n = 3), cynomolgus monkey (n = 1) and Beagle dogs (n = 3). Formulations were prepared in DMSO, Kolliphor® EL, 5% D-mannitol in Elix water at a volume ratio of 1:1:8 for i.v. administration, and in 0.5% gelatin, 5% D-mannitol in Elix water for p.o. administration. Plasma samples were collected at eight to eleven time points up to 24 h after administration. Pharmacokinetic properties and required dosing in humans were predicted by allometric scaling by Karin Jorga Life Science Consulting (Basel, Switzerland) ( Figure S2 and Table S2 ).

For another series, the target named is HEK-hTDO (Homo sapiens, UniProt P48775). The series is described as follows: cell-based assay, Trp-catabolizing activity in HEK-hTDO cells.
In the next series the target is T3, A375 + IFNγ (hIDO1) (Homo sapiens, UniProt P14902).
T3 construct: host or cells: A375 cells stimulated with IFNγ
The experiment in a line: cell-based assay, Trp-catabolizing activity in IFNγ-stimulated A375 cells. The note with it: IFNγ-stimulated A375 human melanoma cells.

In the next series the target is T4, human TDO (Homo sapiens, UniProt P48775).
T4 construct: hexahistidine (C); made in house; host or cells: Escherichia coli
The series is described as follows: human TDO biochemical assay (NFK GreenScreen). The note with it: biochemical. The procedure:
(§1) Full-length recombinant human and mouse IDO1 were expressed in Escherichia coli with a hexahistidine tag at the N-terminus, and purified by affinity chromatography to > 95% purity, as described ([8]). Human and mouse TDO containing a C-terminal hexahistidine tag were analogously expressed and purified to > 95% purity ([8]). The inhibitory activity of compounds was determined with the NFK GreenScreen assay technology under the conditions as described ([8]), except for the reaction buffer for IDO1, which was replaced by 50 mM NaH2PO4, pH 7.0, supplemented with 0.01% Tween-20 and 1% glycerol. Inhibition of the CYP3A4 and CYP2D6 enzymes was determined with the P450-Glo™ Screening System with Luciferin-IPA (Promega, #V9920 and V9890). For determination of IC50 values, the effect of inhibitors was determined in 10-point duplicate dose-response curves. Graphs were fitted to a four-parameter logistics equation in XLfit (ID Business Solutions, Ltd., Guildford, UK) from which IC50 values were calculated.

The nature of series [2]: plasma protein binding, dog. The series is classed as in vitro ADME. As to the method: Supplement DataSheet_1.docx, table 2: Table S2. Pharmacokinetic parameters of NTRC 3883-0 observed in mouse, rat, monkey and dog, and predicted for humans using allometric scaling. Data in bold are measured, while data in italics are calculated or predicted (for humans). The clearance (Cl) and volume of distribution at steady state (Vss | column: Dog

Another series has as its target T5, mTDO (Mus musculus, UniProt P48776).
T5 construct: hexahistidine (C); made in house; host or cells: Escherichia coli
The experiment in a line: mouse TDO biochemical assay (NFK GreenScreen). The following applies: biochemical; @ 31,600 nM. The procedure: as §1

The nature of series [3]: plasma protein binding, mouse. The series is classed as in vitro ADME. The procedure: Supplement DataSheet_1.docx, table 2: Table S2. Pharmacokinetic parameters of NTRC 3883-0 observed in mouse, rat, monkey and dog, and predicted for humans using allometric scaling. Data in bold are measured, while data in italics are calculated or predicted (for humans). The clearance (Cl) and volume of distribution at steady state (Vss | column: Mouse

The next series relates to dog whole blood. The experiment in a line: dog whole blood assay. The series is classed as cell-based. The following applies: Canis lupus familiaris.
For series [4], the system named is CD8-positive T cells co-cultured with HEK-hIDO1 cells. The series is described as follows: co-culture assay of HEK-hIDO1 cells with PBMCs, CFSE proliferation. The series is classed as cell-based, human. The following applies: 7.5 µM Trp; 10 µM NTRC 3883-0, 1 µM epacadostat; 5 days.
Series [5] deals with CT26 cells implanted subcutaneously into female BALB/c mice. The experiment in a line: CT26 mouse model, second study (Charles River). The series is classed as in vivo. As to the method: For the second study, performed at Charles River Laboratories, 3 × 10^5 CT26 cells were implanted subcutaneously into female BALB/c mice on day 0. […] Tumor growth was monitored using caliper measurement 3 times weekly. A tumor volume of 2000 mm^3 was used as the endpoint of the experiment for the individual animals. Tumors were sampled 2 h post last dose.
Tissues were homogenized in PBS at a ratio of 1 mg per 10 μl using micro pellet pestles mounted on a Micro-Tube Homogenizer System (Thomas Scientific). After centrifugation, proteins were removed from the homogenized tissue supernatants and plasma samples by precipitation with methanol. The concentrations of inhibitor, Trp and Kyn were determined by LC-MS/MS.

The next series addresses T6, SW48 (hTDO) (Homo sapiens, UniProt P48775).
T6 construct: host or cells: SW48 cells
The experiment in a line: cell-based assay, Trp-catabolizing activity in SW48 cells.

T6 sequence (P48775 whole entry): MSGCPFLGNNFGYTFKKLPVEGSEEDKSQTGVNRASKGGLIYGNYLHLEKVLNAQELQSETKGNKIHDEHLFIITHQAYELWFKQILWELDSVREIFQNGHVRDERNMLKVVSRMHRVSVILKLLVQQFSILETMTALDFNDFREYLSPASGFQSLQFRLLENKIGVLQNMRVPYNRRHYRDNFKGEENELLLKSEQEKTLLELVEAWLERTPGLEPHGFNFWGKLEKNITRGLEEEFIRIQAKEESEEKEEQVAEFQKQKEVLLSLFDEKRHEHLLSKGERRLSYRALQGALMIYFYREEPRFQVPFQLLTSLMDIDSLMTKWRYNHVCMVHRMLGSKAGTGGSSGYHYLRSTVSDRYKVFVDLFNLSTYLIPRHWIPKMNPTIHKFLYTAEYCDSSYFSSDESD
HEK-hTDO, sequence (P48775 whole entry): as above
T4 sequence (P48775 whole entry): as above
T5 sequence (P48776 whole entry): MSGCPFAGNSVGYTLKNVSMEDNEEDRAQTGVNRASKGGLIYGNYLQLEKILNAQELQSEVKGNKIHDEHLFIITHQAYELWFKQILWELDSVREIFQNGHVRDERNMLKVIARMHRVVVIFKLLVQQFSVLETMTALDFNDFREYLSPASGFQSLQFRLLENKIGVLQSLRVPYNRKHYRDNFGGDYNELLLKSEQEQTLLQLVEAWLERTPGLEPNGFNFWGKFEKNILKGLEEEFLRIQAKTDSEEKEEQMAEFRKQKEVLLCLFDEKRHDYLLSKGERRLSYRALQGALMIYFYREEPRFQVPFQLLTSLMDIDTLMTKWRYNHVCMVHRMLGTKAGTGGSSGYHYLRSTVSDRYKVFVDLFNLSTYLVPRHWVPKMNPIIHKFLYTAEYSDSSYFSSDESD
T3 sequence (P14902 whole entry): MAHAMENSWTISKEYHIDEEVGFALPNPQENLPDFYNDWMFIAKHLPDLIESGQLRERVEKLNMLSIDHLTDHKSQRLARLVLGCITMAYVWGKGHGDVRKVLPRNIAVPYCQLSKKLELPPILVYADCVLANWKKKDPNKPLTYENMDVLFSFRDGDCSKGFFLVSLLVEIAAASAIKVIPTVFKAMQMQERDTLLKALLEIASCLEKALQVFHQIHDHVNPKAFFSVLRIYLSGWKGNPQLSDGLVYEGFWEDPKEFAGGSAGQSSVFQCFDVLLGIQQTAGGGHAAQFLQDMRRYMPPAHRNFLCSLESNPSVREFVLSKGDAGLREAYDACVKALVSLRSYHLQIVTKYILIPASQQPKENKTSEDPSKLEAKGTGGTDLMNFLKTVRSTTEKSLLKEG
T2 sequence (P14902 whole entry): as above
T1 sequence (P14902 whole entry): as above

`O=C1CN(C(=O)c2c(F)cccc2F)[C@H](c2cccc(Br)c2)N1O` [NTRC 3883-0]: the IC50 against human IDO1 turned out to be 123 nM; on hWB + IFNγ (hIDO1), 378 nM; on A375 + IFNγ (hIDO1), 182 nM. In series [1], the half-life was 3.3 h. Besides, the results for the clearance in series [1] and in [1] (body weight 0.29 kg) were 19.1 mL/min/kg and 5.52 mL/min, respectively. The results for the Vd in series [1] (body weight 0.29 kg) and in series [1] were 0.417 L and 1.43 L/kg, respectively. In addition, the bioavailability in series [1] (po, p.o. versus i.v., read-out: Bioavailability (F)) turned out to be 91%. Further, the “effect on Trp-catabolizing activity in HEK-hTDO cells (in words)” value at HEK-hTDO is on record as “no effect”. The inhibition at 31.6 µM was < 20% on HEK-hTDO (read-out: inhibition HEK-hTDO); < 20% on human TDO (@ 31,600 nM, read-out: inhibition hTDO); < 20% on mTDO; < 20% at SW48 (hTDO) (SW48, @ 31,600 nM). For the same compound, at human TDO (highest tested concentration 31.6 µM), the “activity on human TDO (in words)” value was “inactive”. Further, the fraction unbound was 0.21 in series [2] and 0.46 in [3]. In the series with dog whole blood, this compound showed an IC90 of 1000 nM. Besides, in series [4], the “effect on IDO1-mediated inhibition of T cell proliferation (in words)” value is listed as “relieved the inhibitory effect”. The tumor growth result in series [5] (100 mg/kg p.o. b.i.d. from day 8) was “no inhibition of tumor growth”. Besides, in series [5] (LC-MS/MS, 2 h post last dose, 100 mg/kg p.o. b.i.d.), the “Kyn levels in the tumor” value is “considerable reduction of Kyn levels”. At SW48 (hTDO) (constitutively expresses TDO), the “effect on Trp-catabolizing activity in SW48 (in words)” value is recorded as “no effect”.
